Experimental data as given in article PMC10461224, “Development of an Affinity-Based Probe to Profile Endogenous Human Adenosine A3 Receptor Expression” (Journal of Medicinal Chemistry, 2023).

Experiments:
hA3AR [1] = biological target: T1, hA3AR (Homo sapiens, UniProt P0DMS8); test: Confocal microscopy labeling on CHO cells, click to TAMRA-N3; format: cell-based; conditions: 50 nM, 60 min, versus vehicle, PSB-11 pre-incubation and CHO-K1
T1 construct: expressed in transfected cells; host or cells: CHO cells (CHOhA3AR), gift of Prof; K.N. Klotz, University of Würzburg; used as membrane fractions or live cells
T1 sequence (P0DMS8 1-318): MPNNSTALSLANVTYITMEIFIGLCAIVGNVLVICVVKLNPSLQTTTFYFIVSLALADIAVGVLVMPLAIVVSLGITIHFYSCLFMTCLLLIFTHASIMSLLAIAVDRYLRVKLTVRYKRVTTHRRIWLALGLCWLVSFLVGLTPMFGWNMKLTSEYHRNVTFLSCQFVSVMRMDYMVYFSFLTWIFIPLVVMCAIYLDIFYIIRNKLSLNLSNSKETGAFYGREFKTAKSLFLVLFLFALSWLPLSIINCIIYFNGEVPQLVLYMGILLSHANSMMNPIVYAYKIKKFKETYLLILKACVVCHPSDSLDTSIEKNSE
Method: CHOhA3AR and CHO-K1 cells were cultured in a 96-well plate. Upon reaching a confluency of about 90%, the medium was replaced by medium containing PSB-11 (final concentration: 1 μM) or 1% DMSO (control) and the cells were pre-incubated for 30 min (37 °C and 5% CO2). The medium was then replaced with medium containing 9 (final concentration: 50 nM) or 1% DMSO (vehicle), and the cells were incubated for 60 min (37 °C and 5% CO2). The cells were washed with PBS to remove unbound probe and afterward fixed using a 4% PFA in 10% formalin solution (15 min, rt). The remaining fixative was removed by washing with PBS and subsequently with 20 mM glycine in PBS. The cells were permeabilized by incubation in 0.1% saponin in PBS (10 min, rt). Remaining saponin was removed by a PBS wash, and the cells were stored at 4 °C until further usage. At the day of imaging, PBS was removed and the cells were incubated for 1 h in freshly prepared click mix (100 μL 100 mM CuSO4 in MilliQ, 100 μL 1 M NaAsc in MilliQ, 100 μL […] in MilliQ, 9.66 mL HEPES pH 7.4, and 40 μL 1 mM TAMRA-N3 in DMSO, added in the respective order). […]
CellProfiler (version 2.2.0) was used to create a binary image of the DAPI channel and to propagate the cytoplasmic area based on the DAPI binary. An overlay of the binary cytoplasm/TAMRA channel was generated to quantify per segmented pixel the TAMRA intensity. […]

hA3AR [2] = biological target: T1, hA3AR; test: SDS-PAGE labeling on live CHO cells; format: cell-based; conditions: 50 nM, 1 h, 37 °C; signal reduced by PSB-11
Method: CHOhA3AR and CHO-K1 cells were cultured as mentioned above. Cells were grown to ∼90% confluency in 10 cm φ plates. 10 plates were used per condition per experiment. The medium was removed, and the competing ligand (PSB-11, unless noted otherwise) in medium (final concentration: 1 μM) was added. Cells were incubated for 1 h (37 °C, 5% CO2). The medium was removed, and the affinity-based probe (final concentration: 50 nM in medium) was added. The cells were incubated for 1 h (37 °C, 5% CO2) and washed with PBS to get rid of all the non-bound probes. Subsequently, the membranes were prepared and collected using the procedure as described above. Membrane aliquots were diluted to a concentration of 1 μg/μL, and 20 μL was taken per sample. PNGase (0.5 μL, 5 U) or MilliQ was added, and the samples were incubated for 1 h at rt. Next, the click mix was freshly prepared by adding together 5 parts 100 mM CuSO4 in MilliQ, 3 parts 1 M NaAsc in MilliQ, 1 part 100 mM THPTA in MilliQ, and 1 part 100 μM Cy5-N3 in DMSO. […] In-gel fluorescence was measured on a Bio-Rad Universal Hood III using Cy3 (605/50 filter) or Cy5 (695/55 filter) settings. […]
Gel images were analyzed using Image Lab software version 6.0.1 (Bio-Rad). Quantification was done in the following manner: the area under the curve (AUC) of the bands was selected using the ‘Lane Profile’ tab and the adjusted volumes were taken. […]

C#CCOc1ccn2c(c1)nc1c2c(=O)n(CCC)c(=O)n1CCCNC(=O)c1ccc(S(=O)(=O)F)cc1 [compound 9, 4-((3-(2,4-Dioxo-8-(prop-2-yn-1-yloxy)-3-propyl-3,4-dihydropyrido[2,1-f]purin-1(2H)-yl)propyl)carbamoyl)benzenesulfonyl fluoride]
integrated TAMRA fluorescence intensity (hA3AR [1]): significant increase in intensity | labeling of hA3AR on live CHO cells (SDS-PAGE) (hA3AR [2]): binds and labels the hA3AR on live cells
